The record followed here is patent US10329289B2, “6,7-dihydro-5H-pyrrolo[3,4-B]pyridin-5-one allosteric modulators of the M4 muscarinic acetylcholine receptor” (Merck Sharp & Dohme Corp., priority 2015, dated 2019).

Molecules are shown by their SMILES.

For this assay, the target named is T1, human M4 muscarinic acetylcholine receptor (Homo sapiens, UniProt P08173).
T1 construct: expressed in transfected cells; host or cells: CHO-K1
T1 sequence (P08173 1-479): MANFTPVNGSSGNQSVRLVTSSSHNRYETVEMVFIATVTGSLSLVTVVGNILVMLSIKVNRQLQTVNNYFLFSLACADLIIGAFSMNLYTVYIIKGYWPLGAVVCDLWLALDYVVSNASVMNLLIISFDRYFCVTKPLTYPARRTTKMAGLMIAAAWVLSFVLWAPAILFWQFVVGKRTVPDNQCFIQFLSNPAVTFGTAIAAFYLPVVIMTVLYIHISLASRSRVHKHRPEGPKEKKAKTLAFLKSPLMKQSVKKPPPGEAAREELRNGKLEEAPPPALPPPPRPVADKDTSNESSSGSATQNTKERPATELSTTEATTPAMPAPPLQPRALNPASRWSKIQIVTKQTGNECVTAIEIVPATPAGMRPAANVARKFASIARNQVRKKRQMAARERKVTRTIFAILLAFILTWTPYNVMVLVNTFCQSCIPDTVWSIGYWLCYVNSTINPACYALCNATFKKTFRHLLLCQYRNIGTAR
As to the kind of experiment: human FLIPR-based M4 PAM assay (Ca2+ mobilization, CHO-K1 cells with human M4 receptor and Gαqi5). Format: cell-based. As to conditions: acetylcholine at 20% of maximum response, read-out: M4 PAM IP. Summed up: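 CHO-K1 cells stably expressing human M4 and chimeric Gαqi5 were dye-loaded ~1 h at 37 °C and read for Ca2+ fluorescence. Compound followed by acetylcholine at an EC20 (sometimes an EC70 third addition); inflection point from a 4-parameter logistic fit.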
For `COc1ccc(OC2CCN(c3nc4c(cc3C)C(=O)N(C3CC3)C4)CC2)cn1` [Example 269, 6-Cyclopropyl-2-(4-((6-methoxypyridin-3-yl)oxy)piperidin-1-yl)-3-methyl-6,7-dihydro-5H-pyrrolo[3,4-b]pyridin-5-one], the EC50 worked out at 65 nM.
On to `COc1ccc(OC2CCN(c3nc4c(cc3C)C(=O)NC4CO)CC2)cn1` (stereo not drawn) [Example 270, 7-(Hydroxymethyl)-2-(4-((6-methoxypyridin-3-yl)oxy)piperidin-1-yl)-3-methyl-6,7-dihydro-5H-pyrrolo[3,4-b]pyridin-5-one], for which the EC50 is 48 nM.
On to `Cc1cc2c(nc1N1CCC(Oc3ccc4c(cnn4C)c3)CC1)CN(CO)C2=O` [Example 272, 6-(Hydroxymethyl)-3-methyl-2-(4-((1-methyl-1H-indazol-5-yl)oxy)piperidin-1-yl)-6,7-dihydro-5H-pyrrolo[3,4-b]pyridin-5-one], for which the EC50 came out at 395 nM.
Under `COc1ccc(OC2CCN(c3nc4c(cc3C)C(=O)N(C)C4(CO)CO)CC2)cn1` [Example 274, 7,7-Bis(hydroxymethyl)-2-(4-((6-methoxpyridin-3-yl)oxy)piperidin-1-yl)-3,6-dimethyl-6,7-dihydro-5H-pyrrolo[3,4-b]pyridin-5-one] stands 1160 nM; under `Cc1cc2c(nc1N1CCC(Oc3ccccc3)CC1)[C@H](CO)N(C)C2=O` [Example 275, (R)-7-(hydroxymethyl)-3,6-dimethyl-2-(4-phenoxypiperidin-1-yl)-6,7-dihydro-5H-pyrrolo[3,4-b]pyridin-5-one], 3970 nM.
Under `Cc1cc2c(nc1N1CCC(Oc3ccccc3)CC1)[C@@H](CO)N(C)C2=O` [Example 276, (S)-7-(hydroxymethyl)-3,6-dimethyl-2-(4-phenoxypiperidin-1-yl)-6,7-dihydro-5H-pyrrolo[3,4-b]pyridin-5-one] stands 145 nM; under `Cc1cc2c(nc1N1CC[C@@H](Oc3ccc4c(c3)COC4)[C@@H](F)C1)[C@H](CO)N(C)C2=O` [Example 277, (R)-2-((3S,4R)-4-((1,3-dihydro-2-benzofuran-5-yl)oxy)-3-fluoropiperidin-1-yl)-7-(hydroxymethyl)-3,6-dimethyl-6,7-dihydro-5H-pyrrolo[3,4-b]pyridin-5-one], 3400 nM; under `Cc1cc2c(nc1N1CCC(Oc3cnc4c(c3)COC4)CC1)[C@H](CO)N(C)C2=O` [Example 277A, (R)-2-(4-((5,7-dihydrofuro[3,4-b]pyridin-3-yl)oxy)piperidin-1-yl)-7-(hydroxymethyl)-3,6-dimethyl-6,7-dihydro-5H-pyrrolo[3,4-b]pyridin-5-one], 30000 nM.
Under `Cc1cc2c(nc1N1CC[C@@H](Oc3ccc4c(c3)COC4)[C@@H](F)C1)[C@@H](CO)N(C)C2=O` [Example 278, (S)-2-((3S,4R)-4-((1,3-dihydro-2-benzofuran-5-yl)oxy)-3-fluoropiperidin-1-yl)-7-(hydroxymethyl)-3,6-dimethyl-6,7-dihydro-5H-pyrrolo[3,4-b]pyridin-5-one] stands 19 nM; under `Cc1cc2c(nc1N1CCC(Oc3cnc4c(c3)COC4)CC1)[C@@H](CO)N(C)C2=O` [Example 278A, (S)-2-(4-((5,7-dihydrofuro[3,4-b]pyridin-3-yl)oxy)piperidin-1-yl)-7-(hydroxymethyl)-3,6-dimethyl-6,7-dihydro-5H-pyrrolo[3,4-b]pyridin-5-one], 76 nM; under `Cc1cc2c(nc1N1CCC(Oc3ccc(F)cc3)CC1)[C@@H](CO)N(C)C2=O` [Example 279, (S)-2-(4-(4-fluorophenoxy)piperidin-1-yl)-7-(hydroxymethyl)-3,6-dimethyl-6,7-dihydro-5H-pyrrolo[3,4-b]pyridin-5-one], 30 nM.
For the compound `Cc1cc2c(nc1N1CC[C@@H](Oc3ccc4c(c3)COC4)[C@H](F)C1)[C@H](CO)N(C)C2=O` [Example 279A, (R)-2-((3R,4R)-4-((1,3-dihydro-2-benzofuran-5-yl)oxy)-3-fluoropiperidin-1-yl)-7-(hydroxymethyl)-3,6-dimethyl-6,7-dihydro-5H-pyrrolo[3,4-b]pyridin-5-one], the EC50 was 909 nM.
Under `Cc1cc2c(nc1N1CCC(Oc3ccc(F)cc3)CC1)[C@H](CO)N(C)C2=O` [Example 280, (R)-2-(4-(4-fluorophenoxy)piperidin-1-yl)-7-(hydroxymethyl)-3,6-dimethyl-6,7-dihydro-5H-pyrrolo[3,4-b]pyridin-5-one] stands 438 nM; under `Cc1cc2c(nc1N1CC[C@@H](Oc3ccc4c(c3)COC4)[C@H](F)C1)[C@@H](CO)N(C)C2=O` [Example 280A, (S)-2-((3R,4R)-4-((1,3-dihydro-2-benzofuran-5-yl)oxy)-3-fluoropiperidin-1-yl)-7-(hydroxymethyl)-3,6-dimethyl-6,7-dihydro-5H-pyrrolo[3,4-b]pyridin-5-one], 14 nM; under `Cc1cc2c(nc1N1CCC(Oc3ccc4c(c3)COC4)CC1)[C@@H](CO)N(C)C2=O` [Example 281, (S)-2-(4-((1,3-dihydro-2-benzofuran-5-yl)oxy)piperidin-1-yl)-7-(hydroxymethyl)-3,6-dimethyl-6,7-dihydro-5H-pyrrolo[3,4-b]pyridin-5-one], 23 nM.
In the case of `COc1ccc(O[C@@H]2CCN(c3nc4c(cc3C)C(=O)N(C)[C@H]4CO)C[C@H]2F)cn1` [Example 281A, (R)-2-((3R,4R)-3-fluoro-4-((6-methoxypyridin-3-yl)oxy)piperidin-1-yl)-7-(hydroxymethyl)-3,6-dimethyl-6,7-dihydro-5H-pyrrolo[3,4-b]pyridin-5-one], the EC50 turned out to be 8060 nM.
Under `Cc1cc2c(nc1N1CCC(Oc3ccc4c(c3)COC4)CC1)[C@H](CO)N(C)C2=O` [Example 282, (R)-2-(4-((1,3-dihydro-2-benzofuran-5-yl)oxy)piperidin-1-yl)-7-(hydroxymethyl)-3,6-dimethyl-6,7-dihydro-5H-pyrrolo[3,4-b]pyridin-5-one] stands 623 nM; under `COc1ccc(O[C@@H]2CCN(c3nc4c(cc3C)C(=O)N(C)[C@@H]4CO)C[C@H]2F)cn1` [Example 282A, (S)-2-((3R,4R)-3-fluoro-4-((6-methoxypyridin-3-yl)oxy)piperidin-1-yl)-7-(hydroxymethyl)-3,6-dimethyl-6,7-dihydro-5H-pyrrolo[3,4-b]pyridin-5-one], 38 nM; under `Cc1cc2c(nc1N1CC[C@@H](Oc3ccc4c(cnn4C)c3)[C@@H](F)C1)[C@@H](CO)N(C)C2=O` [Example 283, (S)-2-((3S,4R)-3-fluoro-4-((1-methyl-1H-indazol-5-yl)oxy)piperidin-1-yl)-7-(hydroxymethyl)-3,6-dimethyl-6,7-dihydro-5H-pyrrolo[3,4-b]pyridin-5-one], 44 nM.
In the case of `Cc1cc2c(nc1N1CC[C@@H](Oc3ccc4c(cnn4C)c3)[C@@H](F)C1)[C@H](CO)N(C)C2=O` [Example 284, (R)-2-((3S,4R)-3-fluoro-4-((1-methyl-1H-indazol-5-yl)oxy)piperidin-1-yl)-7-(hydroxymethyl)-3,6-dimethyl-6,7-dihydro-5H-pyrrolo[3,4-b]pyridin-5-one], the EC50 amounted to 4330 nM.
Under `CCOc1ccc(OC2CCN(c3nc4c(cc3C)C(=O)N(C)[C@H]4CO)CC2)cn1` [Example 285, (R)-2-(4-((6-ethoxypyridin-3-yl)oxy)piperidin-1-yl)-7-(hydroxymethyl)-3,6-dimethyl-6,7-dihydro-5H-pyrrolo[3,4-b]pyridin-5-one] stands 8620 nM.
